Measurements: US9416145B2, “Compositions and methods for inhibiting activity of hypoxia-inducible transcription factor complex and its use for treatment of tumors” (priority 2012, dated 2016)

What was measured:
[1] = target: T1, GST-tagged CH1 domain of human p300 (aa residues 323-423) (Homo sapiens, UniProt Q09472); test: SPR direct binding to immobilized GST-CH1-p300; design: direct binding to GST-CH1-p300 (in words): dose or concentration left out as unconfirmed
T1 construct: CH1 domain of human p300 (aa residues 323-423)
T1 sequence (Q09472 323-423): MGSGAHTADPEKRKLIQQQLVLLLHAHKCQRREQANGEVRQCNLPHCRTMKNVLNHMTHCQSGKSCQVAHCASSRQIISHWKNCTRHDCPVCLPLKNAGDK
Description: Prior to undertaking more rigorous biophysical and biological characterization of dimeric ETPs LS69 and LS72, it was important to first characterize its thermodynamic binding properties toward the target, p300 CH1 domain. We conducted SPR experiments in the presence of DTT to mimic the reducing environment that would be found in the intracellular milieu. From the SPR sensorgrams it is clear that both LS69 and LS72 bind directly to the GST-tagged CH1 domain of human p300 (aa residues 323-423) with high affinity.

[2] = MTT cytotoxicity assay in A549 cells; format: cell-based; details: human, A549 cells; A549, 48 h treatment, serum free F-12K medium
Description: (§1) FIG. 12 MTT cytotoxicity assay data for LS72 in A549 cell line. […]
(§2) Therefore the treatment of the cells was extended to 48 h in order to better determine its cytotoxicity.

[3] = system: A549 lung adenocarcinoma cell line; test: MTT cytotoxicity assay in A549 cells; format: cell-based; details: Homo sapiens; A549, 24 h treatment; read-out: EC50 (viability)
Description: as §1, §2

VEGF mRNA in A549 cells = test: qRT-PCR of VEGF mRNA in A549 cells; format: cell-based
Description: FIG. 13 mRNA levels of three HIF1α inducible genes: VEGF, c-Met and Glut1 in A549 cells after treatment with LS72. Data from qRT-PCR experiments showing mRNA levels of three HIF1α inducible genes, VEGF, c-Met and Glut1 in A549 after treatment of the cells in a medium with 0.2% serum with LS72 (400 nM). Hypoxia was induced 300 μM by DFO. Error bars are ±s.e.m for the experiments performed in […]. Error bars are ±s.e.m. of experiments performed in triplicate. ***P<0.001, ** P<0.01, t test.
FIG. 15 mRNA levels for VEGF in A549 cell line, illustrating the dose response to LS72 treatment at three different concentrations. qRT-PCR assays were performed in order to determine the mRNA levels for VEGF in A549 cell line treated with LS72 at concentrations: 100 nM, 400 nM, 1600 nM. Hypoxia was induced by DFO (300 μM). Error bars are ±sem for the experiments performed in triplicate. Error bars are ±s.e.m. of experiments performed in triplicate. ** P<0.01, * P<0.05, t test.
(§3) After tests with various serum levels in the media and hypoxia induction methods, the conditions that worked remarkably and consistently well for the induction of HIF1α dependent genes were to keep A549 cells in 2% serum followed by treating cells with compound or control in the media with 0.2% serum for 48 h (FIG. 13). Under these conditions while hypoxia bag was the best option for induction of the LOX gene, the best hypoxic response leading to upregulation of many other HIF1α inducible genes was treatment with 300 μM DFO.
(§4) The hypoxia induction was done at a confluency of 85% cells in serum free F-12K medium with 300 μM DFO.

LOX mRNA in A549 cells = test: qRT-PCR of LOX mRNA in A549 cells; format: cell-based; details: A549, LS72 400 nM, hypoxia bag 48 h
Description: (§5) FIGS. 14 (A) qRT-PCR data for LOX and (B) CXCR4 genes in A549 cells treated with LS72. Hypoxia was induced by hypoxia bag. Cells were maintained in F-12K medium with 2% serum. After reaching 65% confluency the cells were grown in serum free media and treated with LS72 (400 nM). Hypoxia was induced with DFO (300 μM) for 48 h. Error bars are s.e.m. of experiments performed in triplicate. **P<0.01, t test.
as §3

CXCR4 mRNA in A549 cells = test: qRT-PCR of CXCR4 mRNA in A549 cells; format: cell-based
Description: as §5
FIG. 18 qRT-PCR data for A549 cells where hypoxia was induced in 85% confluent cells. […] Error bars are ±sem for the experiments performed in triplicate. ** P<0.01, # P<0.1, t test.
as §3, §4

[4] = system: global transcript levels (28,869 transcripts) in MCF7 cells; test: Gene expression profiling with Affymetrix Human Gene ST 1.0 Arrays; format: cell-based
Description: Since the target proteins p300 and CBP are pleiotropic multidomain coactivators, their CH1 regions contain binding sites for multiple transcription factors. One potential concern of the use of ETPs for gene regulation is specificity, because inhibiting the interaction between CBP/p300 and transcription factors other than HIF1α may result in large numbers of affected genes. To rule out nonspecific genome-wide effects of ETPs, we conducted in vitro gene expression profiling experiments with LS72 using Affymetrix Human Gene ST 1.0 Arrays containing oligonucleotide sequences representing 28,869 transcripts.^67,68
In order to interrogate cellular genome for global effects, MCF7 cells treated with LS72 at 400 nM were used. Treatment of cells with LS72 at a concentration of 400 nM affected the expression of only 178 genes at ≧2.0 fold levels (FIG. 20). By comparison, treatment with DFO alone changed levels of 329 genes ≧2.0 fold. […] In cells treated with LS72 under DFO-induced hypoxia conditions, we identified 190 genes were affected by this compound. Clustering analysis was performed to identify similarities in the expression profiles between different treatments (FIG. 19).

[5] = MCF7, hypoxic induction with DFO (300 μM), LS72 400 nM

For CN1C(=O)[C@]2(Cc3ccc(CCc4ccc(C[C@@]56SS[C@@](CO)(C(=O)N5C)N(C)C6=O)cc4)cc3)SS[C@@]1(CO)C(=O)N2C (racemic) [LS72, 4,4′-((ethane-1,2-diylbis(4,1-phenylene))bis(methylene))bis(1-(hydroxymethyl)-5,7-dimethyl-2,3-dithia-5,7-diazabicyclo[2.2.2]octane-6,8-dione)], which “direct binding to GST-CH1-p300 (in words)” value [1] is on record?
The value was “bind directly”.

What about the kon ([1]; in the presence of DTT, read-out: rate of association (ka)) of the same molecule?
The kon was 4250 M⁻¹ s⁻¹.

And the Kd ([1]; off rate/on rate, read-out: binding constant KD)?
Its Kd is 3.62 µM.

What about the EC50 at 48 h [2] of the same molecule?
The EC50 at 48 h was 2.8 µM.

And the EC50 [3]?
The EC50 was over 10 µM.

And the “HIF1α inducible transcription of VEGF, dose response” value (VEGF mRNA in A549 cells; A549 85% confluent, hypoxia 300 μM DFO, 100 nM, 400 nM, 1600 nM)?
The value was “dose dependent decrease”.

What about the “reduction of VEGF mRNA levels” value (VEGF mRNA in A549 cells; A549, LS72 400 nM, 0.2% serum, 300 μM DFO, 48 h) of the same molecule?
Its value is 50%.

What about the “VEGF transcription levels in normoxia” value (VEGF mRNA in A549 cells; A549, normoxia, 100 nM, 400 nM, 1600 nM) of the same molecule?
The value was “not changed significantly”.

And the “LOX transcriptional activity (in words)” value (LOX mRNA in A549 cells)?
Its value is “significant downregulation in the transcriptional activity”.

What about the “CXCR4 mRNA levels, dose response” value (CXCR4 mRNA in A549 cells; A549 85% confluent, 300 μM DFO, 400 nM and 1600 nM) of the same molecule?
The value was “dose-dependent decrease”.

And the “CXCR4 transcriptional activity (in words)” value (CXCR4 mRNA in A549 cells; A549, 400 nM)?
The value was “excellent inhibition of the transcriptional activity”.

And the “number of genes downregulated ≧2.0 fold” value ([4]; MCF7, LS72 400 nM)?
Its value is 88 genes.

What about the “number of genes upregulated by ≧2.0 fold” value ([4]; MCF7, LS72 400 nM) of the same molecule?
Its value is 90 genes.

And the “number of genes with expression affected at ≧2.0 fold levels” value ([4]; MCF7, LS72 400 nM)?
The value was 178 genes.

What about the “number of genes affected under DFO-induced hypoxia” value ([4]; MCF7, LS72 under DFO-induced hypoxia conditions) of the same molecule?
The value was 190 genes.

What about the “CAV1 (Entrez 857) expression change, microarray” value [4, 5] of the same molecule?
Its value is −1.3.

What about the “LOXL2 (Entrez 4017) expression change, microarray” value [4, 5] of the same molecule?
The value was −1.4.

What about the “MET (Entrez 4233) expression change, microarray” value [4, 5] of the same molecule?
Its value is −2.2.

And the “SLC5A6 (Entrez 8884) expression change, microarray” value [4, 5]?
Its value is −2.4.

And the “SLC5A8 (Entrez 160728) expression change, microarray” value [4, 5]?
The value was −1.4.

What about the “SLC7A2 (Entrez 6542) expression change, microarray” value [4, 5] of the same molecule?
The value was −2.5.

What about the “SLC9A2 (Entrez 6549) expression change, microarray” value [4, 5] of the same molecule?
The value was −1.8.

What about the “SLC9A3R1 (Entrez 9368) expression change, microarray” value [4, 5] of the same molecule?
Its value is −1.6.

And the “SLC25A12 (Entrez 8604) expression change, microarray” value [4, 5]?
The value was −1.8.

And the “SLC25A15 (Entrez 10166) expression change, microarray” value [4, 5]?
The value was −1.5.

What about the “SLC26A2 (Entrez 1836) expression change, microarray” value [4, 5] of the same molecule?
Its value is −1.4.

And the “SLC27A4 (Entrez 10999) expression change, microarray” value [4, 5]?
The value was −1.4.

What about the “SLC35A1 (Entrez 10559) expression change, microarray” value [4, 5] of the same molecule?
Its value is −2.2.

And the “SLC35D1 (Entrez 23169) expression change, microarray” value [4, 5]?
Its value is −3.1.

And the “SLC38A9 (Entrez 153129) expression change, microarray” value [4, 5]?
Its value is −1.5.

And the “SLC39A11 (Entrez 201266) expression change, microarray” value [4, 5]?
Its value is −1.9.

What about the “TFRC (Entrez 7037) expression change, microarray” value [4, 5] of the same molecule?
The value was −1.5.

And the “TGFB3 (Entrez 7043) expression change, microarray” value [4, 5]?
The value was −1.5.
